Experimental findings from ChEMBL document CHEMBL1909046, “DrugMatrix in vitro pharmacology data” are described below.

The nature of experiment [1]: DRUGMATRIX: Sodium/nucleoside co-transporter radioligand binding (ligand: nitrobenzylthioinosine). Format: cell membranes, Cavia porcellus, Dunkin-Hartley, Cerebral cortex, Membrane. The conditions noted are these: Not Active = under 50% inhibition at 10 µM.
For experiment [2], the target named is Sodium-dependent noradrenaline transporter (Homo sapiens, UniProt P23975). Put plainly: DRUGMATRIX: Norepinephrine Transporter radioligand binding (ligand: [125I] RTI-55). Format: cell membranes, MDCK, Membrane. Conditions: Not Active = under 50% inhibition at 10 µM; for IC50: mdck.
A short description of experiment [3]: DRUGMATRIX: beta-Lactamase enzyme inhibition (substrate: Nitrocefin). Also on record: species or system Bacillus cereus. Conditions: Not Active = under 50% inhibition at 10 µM.
The target of experiment [4] is 5-hydroxytryptamine receptor 2B (Homo sapiens, UniProt P41595). The class given is cell membranes, CHO-K1, Membrane. Conditions: for IC50: cho-k1. On all read-outs here: in other assays of this panel Not Active means under 50% inhibition at 10 µM.
The target of experiment [5] is 5-hydroxytryptamine receptor 6 (Homo sapiens, UniProt P50406). The class given is cell membranes, HeLa, Membrane. The conditions noted are these: hela. Further: in other assays of this panel Not Active means under 50% inhibition at 10 µM.
In a further experiment the target is T1, Thromboxane-A synthase (Homo sapiens, UniProt P24557).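 Further: enzyme inhibition assay with PGH2 supplied as substrate; in other assays of this panel Not Active means under 50% inhibition at 10 µM.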
T1 sequence (P24557 whole entry): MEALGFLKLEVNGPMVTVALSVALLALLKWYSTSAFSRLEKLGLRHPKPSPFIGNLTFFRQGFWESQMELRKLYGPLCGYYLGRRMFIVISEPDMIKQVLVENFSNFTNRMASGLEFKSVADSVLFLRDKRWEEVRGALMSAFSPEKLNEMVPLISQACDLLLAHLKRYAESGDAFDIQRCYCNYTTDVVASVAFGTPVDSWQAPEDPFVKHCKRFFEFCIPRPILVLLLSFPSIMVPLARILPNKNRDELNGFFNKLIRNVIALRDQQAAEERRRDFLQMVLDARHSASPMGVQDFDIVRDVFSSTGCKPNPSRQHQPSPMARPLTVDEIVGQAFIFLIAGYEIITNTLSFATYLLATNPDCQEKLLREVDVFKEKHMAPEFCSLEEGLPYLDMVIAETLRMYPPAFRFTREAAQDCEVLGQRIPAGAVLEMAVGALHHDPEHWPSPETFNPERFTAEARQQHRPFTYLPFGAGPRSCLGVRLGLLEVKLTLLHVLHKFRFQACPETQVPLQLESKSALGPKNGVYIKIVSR
Put plainly: biochemical. The class given is tissue-based, Platelet. The conditions noted are these: for IC50: platelet.

The target of experiment [6] is T2, C-X-C chemokine receptor type 1 (Homo sapiens, UniProt P25024). Further: in other assays of this panel Not Active means under 50% inhibition at 10 µM.
T2 sequence (P25024 whole entry): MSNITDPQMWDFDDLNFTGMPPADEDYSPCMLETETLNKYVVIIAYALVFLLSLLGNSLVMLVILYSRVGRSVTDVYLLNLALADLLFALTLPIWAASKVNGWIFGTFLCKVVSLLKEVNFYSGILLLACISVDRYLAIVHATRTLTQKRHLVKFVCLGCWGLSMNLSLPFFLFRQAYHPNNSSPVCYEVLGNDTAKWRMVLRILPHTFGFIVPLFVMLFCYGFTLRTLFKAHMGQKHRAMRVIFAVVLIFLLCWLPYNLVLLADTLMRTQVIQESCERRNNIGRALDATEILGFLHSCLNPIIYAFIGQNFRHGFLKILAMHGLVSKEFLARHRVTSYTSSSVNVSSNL

The target of the next experiment is D(3) dopamine receptor (Homo sapiens, UniProt P35462). Put plainly: DRUGMATRIX: Dopamine D3 radioligand binding (ligand: [3H] Spiperone). Format: cell membranes, CHO, Membrane. Conditions: for IC50: cho.
A further experiment concerns the target T3, D(4) dopamine receptor (Homo sapiens, UniProt P21917).
T3 sequence (P21917 whole entry): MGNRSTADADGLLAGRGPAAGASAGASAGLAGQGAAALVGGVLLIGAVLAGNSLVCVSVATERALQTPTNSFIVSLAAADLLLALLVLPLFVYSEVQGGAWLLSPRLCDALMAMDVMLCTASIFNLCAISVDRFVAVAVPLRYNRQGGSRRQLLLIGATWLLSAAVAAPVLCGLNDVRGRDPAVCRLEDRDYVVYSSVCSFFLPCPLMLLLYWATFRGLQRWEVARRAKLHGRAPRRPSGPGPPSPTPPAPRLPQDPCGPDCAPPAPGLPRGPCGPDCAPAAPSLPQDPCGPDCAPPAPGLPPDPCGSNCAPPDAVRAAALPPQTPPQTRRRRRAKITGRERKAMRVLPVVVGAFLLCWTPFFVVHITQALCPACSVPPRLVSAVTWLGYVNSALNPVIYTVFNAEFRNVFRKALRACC
Put plainly: DRUGMATRIX: Dopamine D4.2 radioligand binding (ligand: [3H] Spiperone). The class given is cell membranes, CHO-K1, Membrane. Conditions: cho-k1; Not Active = under 50% inhibition at 10 µM.

The nature of experiment [7]: DRUGMATRIX: GABAA, Chloride Channel, TBOB radioligand binding (ligand: [3H] TBOB). The class given is cell membranes, Rattus norvegicus, Wistar, Cerebral cortex, Membrane. The conditions noted are these: Not Active = under 50% inhibition at 10 µM.
The nature of experiment [8]: DRUGMATRIX: Glutamate, AMPA radioligand binding (ligand: [3H] AMPA). The conditions noted are these: Not Active = under 50% inhibition at 10 µM. Format: cell membranes, Rattus norvegicus, Wistar, Cerebral cortex, Membrane.
The nature of experiment [9]: DRUGMATRIX: Glutamate, Kainate radioligand binding (ligand: [3H] Kainic acid). The class given is cell membranes, Rattus norvegicus, Wistar, Brain, Membrane. The conditions noted are these: Not Active = under 50% inhibition at 10 µM.
In the next experiment the target is Glycine receptor (Rattus norvegicus, UniProt P22771+P24524+P07727+P20781). Format: cell membranes, Wistar, Spinal cord, Membrane. Further: in other assays of this panel Not Active means under 50% inhibition at 10 µM.
In the next experiment the target is Histamine H2 receptor (Homo sapiens, UniProt P25021). Format: cell membranes, CHO-K1, Membrane. Conditions: cho-k1. Further: in other assays of this panel Not Active means under 50% inhibition at 10 µM.
Experiment [10] can be described thus: DRUGMATRIX: Imidazoline I2, Central radioligand binding (ligand: [3H] Idazoxan). The class given is cell membranes, Rattus norvegicus, Wistar, Cerebral cortex, Membrane. The conditions noted are these: Not Active = under 50% inhibition at 10 µM.
Experiment [11] in a line: DRUGMATRIX: Platelet-Derived Growth Factor (PDGF) radioligand binding (ligand: [125I] PDGF). The conditions noted are these: nih3t3; Not Active = under 50% inhibition at 10 µM. The class given is cell-based.
The target in experiment [12] is Beta-3 adrenergic receptor (Homo sapiens, UniProt P13945). Put plainly: DRUGMATRIX: Adrenergic beta3 radioligand binding (ligand: [125I] Cyanopindolol). The class given is cell membranes, HEK293, Membrane. Conditions: hek293; Not Active = under 50% inhibition at 10 µM.

Structures are written as SMILES. pIC50, pKi: −log10 of the molar value.

Sequence of Beta-3 adrenergic receptor (P13945 whole entry): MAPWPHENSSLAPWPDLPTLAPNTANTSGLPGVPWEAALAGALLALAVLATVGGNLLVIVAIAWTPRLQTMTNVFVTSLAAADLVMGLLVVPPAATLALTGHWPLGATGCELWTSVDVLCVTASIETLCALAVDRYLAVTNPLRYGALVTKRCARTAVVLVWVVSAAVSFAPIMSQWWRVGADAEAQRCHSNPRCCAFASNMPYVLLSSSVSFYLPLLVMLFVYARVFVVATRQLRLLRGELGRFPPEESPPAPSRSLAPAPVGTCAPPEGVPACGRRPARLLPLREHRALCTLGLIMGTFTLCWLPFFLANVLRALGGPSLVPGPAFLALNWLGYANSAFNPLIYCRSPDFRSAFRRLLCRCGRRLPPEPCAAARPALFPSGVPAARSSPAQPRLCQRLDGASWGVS
Sequence of Histamine H2 receptor (P25021 whole entry): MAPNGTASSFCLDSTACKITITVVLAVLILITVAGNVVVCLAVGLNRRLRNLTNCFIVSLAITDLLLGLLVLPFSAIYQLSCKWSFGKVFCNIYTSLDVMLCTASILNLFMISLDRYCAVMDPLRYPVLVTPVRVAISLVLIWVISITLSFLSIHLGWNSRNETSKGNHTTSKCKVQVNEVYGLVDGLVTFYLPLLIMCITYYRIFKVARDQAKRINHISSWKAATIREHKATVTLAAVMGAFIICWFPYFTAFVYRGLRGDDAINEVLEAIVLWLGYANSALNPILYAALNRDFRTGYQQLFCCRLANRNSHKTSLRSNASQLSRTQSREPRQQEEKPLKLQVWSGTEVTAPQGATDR
Sequence of Sodium-dependent noradrenaline transporter (P23975 whole entry): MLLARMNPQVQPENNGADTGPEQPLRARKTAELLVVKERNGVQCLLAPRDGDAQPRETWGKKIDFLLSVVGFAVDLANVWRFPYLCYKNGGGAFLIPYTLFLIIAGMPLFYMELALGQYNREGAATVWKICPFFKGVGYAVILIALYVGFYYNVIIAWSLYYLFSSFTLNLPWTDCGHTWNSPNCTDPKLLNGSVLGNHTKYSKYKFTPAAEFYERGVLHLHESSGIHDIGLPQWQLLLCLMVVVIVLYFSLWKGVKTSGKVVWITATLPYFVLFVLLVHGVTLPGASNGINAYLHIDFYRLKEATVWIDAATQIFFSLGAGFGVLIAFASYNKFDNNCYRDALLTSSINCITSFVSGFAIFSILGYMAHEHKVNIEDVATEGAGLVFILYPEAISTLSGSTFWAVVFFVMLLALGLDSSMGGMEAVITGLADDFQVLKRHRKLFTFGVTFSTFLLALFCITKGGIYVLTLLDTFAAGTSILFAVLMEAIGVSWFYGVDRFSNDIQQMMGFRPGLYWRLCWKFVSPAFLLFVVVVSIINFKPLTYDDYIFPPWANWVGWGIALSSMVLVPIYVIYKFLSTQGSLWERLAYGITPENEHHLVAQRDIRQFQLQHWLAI
Sequence of 5-hydroxytryptamine receptor 2B (P41595 whole entry): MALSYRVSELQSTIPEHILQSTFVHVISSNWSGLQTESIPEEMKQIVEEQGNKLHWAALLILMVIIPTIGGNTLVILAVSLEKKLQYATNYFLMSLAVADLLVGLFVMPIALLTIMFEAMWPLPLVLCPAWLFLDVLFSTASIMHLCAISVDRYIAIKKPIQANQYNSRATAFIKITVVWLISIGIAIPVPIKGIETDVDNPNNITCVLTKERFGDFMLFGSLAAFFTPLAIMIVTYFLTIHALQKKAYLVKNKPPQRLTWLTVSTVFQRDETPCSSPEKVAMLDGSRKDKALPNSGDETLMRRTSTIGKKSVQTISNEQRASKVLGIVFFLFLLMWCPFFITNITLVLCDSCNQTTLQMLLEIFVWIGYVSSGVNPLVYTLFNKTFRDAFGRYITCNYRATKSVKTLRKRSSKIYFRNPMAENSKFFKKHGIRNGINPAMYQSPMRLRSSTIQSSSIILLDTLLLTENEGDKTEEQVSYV
Sequence of 5-hydroxytryptamine receptor 6 (P50406 whole entry): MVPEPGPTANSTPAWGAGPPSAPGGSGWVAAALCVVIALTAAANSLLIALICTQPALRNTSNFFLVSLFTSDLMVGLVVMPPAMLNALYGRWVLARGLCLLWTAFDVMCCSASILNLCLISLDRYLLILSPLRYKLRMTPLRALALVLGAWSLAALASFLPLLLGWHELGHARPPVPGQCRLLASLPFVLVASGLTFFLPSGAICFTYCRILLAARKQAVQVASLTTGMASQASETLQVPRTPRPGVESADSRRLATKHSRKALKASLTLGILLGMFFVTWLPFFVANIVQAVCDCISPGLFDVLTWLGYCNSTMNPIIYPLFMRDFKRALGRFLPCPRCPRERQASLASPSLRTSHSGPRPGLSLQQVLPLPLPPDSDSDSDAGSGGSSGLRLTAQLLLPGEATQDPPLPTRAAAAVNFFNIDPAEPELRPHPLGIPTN
Sequence of D(3) dopamine receptor (P35462 whole entry): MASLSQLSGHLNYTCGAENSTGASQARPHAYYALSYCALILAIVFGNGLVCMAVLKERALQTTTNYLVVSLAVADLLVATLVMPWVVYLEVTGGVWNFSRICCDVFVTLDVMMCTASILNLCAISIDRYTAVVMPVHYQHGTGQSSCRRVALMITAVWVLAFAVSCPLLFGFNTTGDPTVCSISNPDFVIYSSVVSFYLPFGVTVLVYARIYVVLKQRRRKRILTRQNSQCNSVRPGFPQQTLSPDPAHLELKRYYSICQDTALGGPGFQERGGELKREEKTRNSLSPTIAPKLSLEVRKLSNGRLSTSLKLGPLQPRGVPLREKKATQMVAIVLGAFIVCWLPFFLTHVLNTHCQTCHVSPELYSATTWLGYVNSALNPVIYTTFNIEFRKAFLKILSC

In the case of `CC(C)NC[C@H](O)COc1cccc2[nH]ccc12`, the IC50 result (in experiment [1]; in experiment [2]; in experiment [3]; in experiment [4]; in [5]; against Thromboxane-A synthase) was “Not Active” throughout. Further, the IC50 entry (in experiment [6]; on D(3) dopamine receptor; on D(4) dopamine receptor; in [7]; in [8]; in [9]) was “Not Active” in each case. Moreover, the IC50 entry (against Glycine receptor; against Histamine H2 receptor; in experiment [10]; in experiment [11]) was “Not Active” each time. Besides, the Ki result in [1], in [3], in experiment [7], in experiment [8], in [9] and in experiment [10] was “Not Active” in each case. In addition, the Ki entry in [11] was “Not Active”.

In the case of `Cc1[nH]cnc1CN1CCc2c(c3ccccc3n2C)C1=O` [ALOSETRON], the IC50 result (in experiment [1]; in experiment [12]; in [2]; in experiment [3]; in [5]; against Thromboxane-A synthase) was “Not Active” each time. Besides, the IC50 result (in [6]; at D(3) dopamine receptor; at D(4) dopamine receptor; in [7]; in experiment [8]; in experiment [9]) was “Not Active” throughout. Besides, the IC50 result (at Glycine receptor; against Histamine H2 receptor; in [10]; in [11]) was “Not Active” each time. Also, the Ki result in experiment [1], in [3], in [7], in [8], in experiment [9] and in experiment [10] was “Not Active” each time. Besides, the Ki entry in experiment [11] is “Not Active”.

For orientation: pIC50 means the negative decadic logarithm of the IC50, by convention in mol/L. Usually pKi stands for the Ki on a negative log10 scale, so that one unit is a factor of ten. Consider `Oc1c(Cl)cc(Cl)cc1Sc1cc(Cl)cc(Cl)c1O` [BITHIONOL], for which the IC50 entry (in [1]; in [12]; in experiment [3]; in experiment [5]; in [6]; on D(4) dopamine receptor) was “Not Active” throughout. Moreover, the IC50 entry (in experiment [7]; in experiment [8]; in experiment [9]; against Glycine receptor; against Histamine H2 receptor; in experiment [10]) was “Not Active” in each case. Besides, the IC50 result in experiment [11] is recorded as “Not Active”. Further, the Ki result in experiment [1], in experiment [3], in [7], in [8], in [9] and in experiment [10] was “Not Active” in each case. Besides, the Ki entry in [11] is “Not Active”. Besides, the pIC50 in experiment [2] (read-out: IC50) is 5.91; on Thromboxane-A synthase (read-out: IC50), 5.74; at D(3) dopamine receptor (read-out: IC50), 5.37. Moreover, the figures for the pKi (in [2] (read-out: Ki); at D(3) dopamine receptor (read-out: Ki)) were 5.91 and 5.84, respectively.

Take `Fc1ccc([C@@H]2CCNC[C@H]2COc2ccc3c(c2)OCO3)cc1` [PAROXETINE]: the IC50 entry (in experiment [1]; in experiment [12]; in experiment [3]; in [4]; in experiment [5]; against Thromboxane-A synthase) was “Not Active” each time. In addition, the IC50 entry (in [6]; at D(3) dopamine receptor; at D(4) dopamine receptor; in [7]; in experiment [8]; in experiment [9]) was “Not Active” each time. For the same molecule, the IC50 entry (on Glycine receptor; at Histamine H2 receptor; in experiment [10]; in experiment [11]) was “Not Active” in each case. Also, the Ki result in experiment [1], in [3], in experiment [7], in experiment [8], in [9] and in experiment [10] was “Not Active” in each case. In experiment [11], the Ki entry was “Not Active”.

As for `COc1ccc(CN(CCN(C)C)c2ccccn2)cc1` [PYRILAMINE], the IC50 entry (in experiment [1]; in [12]; in experiment [3]; in experiment [5]; on Thromboxane-A synthase; in [6]) was “Not Active” each time. Also, the IC50 entry (on D(3) dopamine receptor; on D(4) dopamine receptor; in experiment [7]; in experiment [8]; in experiment [9]; against Glycine receptor) was “Not Active” in each case. For the same molecule, the IC50 entry (on Histamine H2 receptor; in experiment [11]) was “Not Active” in each case. For the same molecule, the Ki entry in experiment [1], in [3], in experiment [7], in experiment [8], in experiment [9] and in experiment [11] was “Not Active” each time. The pIC50 is 5.55 in [4] (read-out: IC50) and 5.48 in experiment [10] (read-out: IC50). The pKi in [4] (read-out: Ki) is 5.75; in experiment [10] (read-out: Ki) it was 5.65.
